Measurements reported in ChEMBL document CHEMBL1201862, “PubChem BioAssay data set” (2004).
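Briefly, cells in 96-well plates were exposed to five compound concentrations for 48 h, and endpoints were estimated by linear interpolation. GI50 = concentration required for 50% inhibition of growth.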 Activity calls are given as the source filed them. Rule as the data show it: active = GI50 up to about 1.1 µM and inactive = higher.

Legend:
Test in all cases: growth of human tumour cells (NCI), 48 h
SF-295 = tested on: SF-295
M14 = tested on: M14
KM-20L2 = tested on: KM-20L2
A549 = tested on: A549
KM12 = tested on: KM12
HCT-15 = tested on: HCT-15
Malme-3M = tested on: Malme-3M
RXF 631 = tested on: RXF 631
HOP-62 = tested on: HOP-62
UACC-257 = tested on: UACC-257
SNB-19 = tested on: SNB-19
RPMI-8226 = tested on: RPMI-8226
CCRF-CEM = tested on: CCRF-CEM
SF-539 = tested on: SF-539
UO-31 = tested on: UO-31
NCI-H522 = tested on: NCI-H522
TK-10 = tested on: TK-10
MOLT-4 = tested on: MOLT-4
LXFL 529 = tested on: LXFL 529
HCT-116 = tested on: HCT-116
SNB-75 = tested on: SNB-75
U-251 = tested on: U-251
ACHN = tested on: ACHN
HL-60 = tested on: HL-60
K562 = tested on: K562
SF-268 = tested on: SF-268
OVCAR-3 = tested on: OVCAR-3
SW-620 = tested on: SW-620
A498 = tested on: A498
SK-MEL-5 = tested on: SK-MEL-5
SR = tested on: SR
HOP-92 = tested on: HOP-92
786-0 = tested on: 786-0
SK-MEL-28 = tested on: SK-MEL-28
NCI-H226 = tested on: NCI-H226
NCI-H23 = tested on: NCI-H23
DMS-114 = tested on: DMS-114
HOP-18 = tested on: HOP-18
LOX IMVI = tested on: LOX IMVI
COLO 205 = tested on: COLO 205
NCI-H460 = tested on: NCI-H460
OVCAR-5 = tested on: OVCAR-5
SN12C = tested on: SN12C
SK-OV-3 = tested on: SK-OV-3
SK-MEL-2 = tested on: SK-MEL-2
CAKI-1 = tested on: CAKI-1
OVCAR-4 = tested on: OVCAR-4
UACC-62 = tested on: UACC-62
OVCAR-8 = tested on: OVCAR-8
HT-29 = tested on: HT-29
IGROV-1 = tested on: IGROV-1
M19-MEL = tested on: M19-MEL
DLD-1 = tested on: DLD-1
SNB-78 = tested on: SNB-78
EKVX = tested on: EKVX
HCC 2998 = tested on: HCC 2998
RXF 393 = tested on: RXF 393
DMS-273 = tested on: DMS-273

O=C(Nc1c(O)[nH]c(=S)[nH]c1=O)c1ccccc1F
GI50 (SF-295): > 100 µM (inactive) | GI50 (M14): > 100 µM (inactive) | GI50 (KM-20L2): > 100 µM (inactive) | GI50 (A549): > 100 µM (inactive) | GI50 (KM12): > 100 µM (inactive) | GI50 (HCT-15): > 100 µM | GI50 (Malme-3M): > 100 µM (inactive) | GI50 (RXF 631): > 100 µM (inactive) | GI50 (HOP-62): > 100 µM (inactive) | GI50 (UACC-257): > 100 µM (inactive) | GI50 (SNB-19): > 100 µM (inactive) | GI50 (RPMI-8226): > 100 µM (inactive) | GI50 (CCRF-CEM): > 100 µM (inactive) | GI50 (SF-539): > 100 µM (inactive) | GI50 (UO-31): > 100 µM (inactive) | GI50 (NCI-H522): > 100 µM (inactive) | GI50 (TK-10): > 100 µM (inactive) | GI50 (MOLT-4): > 100 µM (inactive) | GI50 (LXFL 529): > 100 µM (inactive) | GI50 (HCT-116): > 100 µM (inactive) | GI50 (SNB-75): > 100 µM (inactive) | GI50 (U-251): > 100 µM (inactive) | GI50 (ACHN): > 100 µM (inactive) | GI50 (HL-60): > 100 µM (inactive) | GI50 (K562): > 100 µM (inactive) | GI50 (SF-268): > 100 µM (inactive) | GI50 (OVCAR-3): > 100 µM (inactive) | GI50 (SW-620): > 100 µM (inactive) | GI50 (A498): > 100 µM (inactive) | GI50 (SK-MEL-5): > 100 µM (inactive) | GI50 (SR): > 100 µM (inactive) | GI50 (HOP-92): > 100 µM (inactive) | GI50 (786-0): > 100 µM (inactive) | GI50 (SK-MEL-28): > 100 µM (inactive) | GI50 (NCI-H226): > 100 µM (inactive) | GI50 (NCI-H23): > 100 µM (inactive) | GI50 (DMS-114): > 100 µM (inactive) | GI50 (HOP-18): > 100 µM (inactive) | GI50 (LOX IMVI): > 100 µM (inactive) | GI50 (COLO 205): > 100 µM (inactive) | GI50 (NCI-H460): > 100 µM (inactive) | GI50 (OVCAR-5): > 100 µM (inactive) | GI50 (SN12C): > 100 µM (inactive) | GI50 (SK-OV-3): > 100 µM (inactive) | GI50 (SK-MEL-2): > 100 µM (inactive) | GI50 (CAKI-1): > 100 µM (inactive) | GI50 (OVCAR-4): > 100 µM (inactive) | GI50 (UACC-62): > 100 µM (inactive) | GI50 (OVCAR-8): > 100 µM (inactive) | GI50 (HT-29): > 100 µM (inactive) | GI50 (IGROV-1): > 100 µM (inactive) | GI50 (M19-MEL): > 100 µM (inactive) | GI50 (DLD-1): > 100 µM (inactive) | GI50 (SNB-78): > 100 µM (inactive)

COc1cc2c(c(C)c1O)[C@H]1COc3ccccc3[C@H]1O2
GI50 (SF-295): 27 µM (inactive) | GI50 (M14): 8.15 µM (inactive) | GI50 (KM-20L2): 18.2 µM (inactive) | GI50 (A549): 13.2 µM (inactive) | GI50 (KM12): 24.7 µM (inactive) | GI50 (HCT-15): 4.27 µM | GI50 (Malme-3M): 22.1 µM (inactive) | GI50 (RXF 631): 11.6 µM (inactive) | GI50 (HOP-62): 6.59 µM (inactive) | GI50 (UACC-257): 12.4 µM (inactive) | GI50 (SNB-19): 1.49 µM (inactive) | GI50 (RPMI-8226): 13.8 µM (inactive) | GI50 (CCRF-CEM): 13.6 µM (inactive) | GI50 (SF-539): 8.41 µM (inactive) | GI50 (UO-31): 8.51 µM (inactive) | GI50 (NCI-H522): 3.27 µM (inactive) | GI50 (TK-10): 31.5 µM (inactive) | GI50 (MOLT-4): 14.7 µM (inactive) | GI50 (EKVX): 12.2 µM (inactive) | GI50 (LXFL 529): 14.6 µM (inactive) | GI50 (HCC 2998): > 10 µM (inactive) | GI50 (HCT-116): 5.71 µM (inactive) | GI50 (SNB-75): 3.95 µM (inactive) | GI50 (U-251): > 10 µM (inactive) | GI50 (ACHN): 21.2 µM (inactive) | GI50 (HL-60): 2.94 µM (inactive) | GI50 (K562): 4.29 µM (inactive) | GI50 (SF-268): 15.2 µM (inactive) | GI50 (OVCAR-3): 21.9 µM (inactive) | GI50 (SW-620): 5.27 µM (inactive) | GI50 (A498): 24.9 µM (inactive) | GI50 (SK-MEL-5): 10.8 µM (inactive) | GI50 (HOP-92): 19.5 µM (inactive) | GI50 (786-0): 16.6 µM (inactive) | GI50 (SK-MEL-28): 12.6 µM (inactive) | GI50 (NCI-H226): 6.25 µM (inactive) | GI50 (NCI-H23): 13.2 µM (inactive) | GI50 (DMS-114): 5.12 µM (inactive) | GI50 (HOP-18): 1.37 µM (inactive) | GI50 (RXF 393): 9.06 µM (inactive) | GI50 (LOX IMVI): 3.65 µM (inactive) | GI50 (DMS-273): 5.81 µM (inactive) | GI50 (COLO 205): 18.7 µM (inactive) | GI50 (NCI-H460): 11.3 µM (inactive) | GI50 (OVCAR-5): 55.3 µM (inactive) | GI50 (SK-OV-3): 31.8 µM (inactive) | GI50 (SK-MEL-2): 3.16 µM (inactive) | GI50 (CAKI-1): 9.04 µM (inactive) | GI50 (OVCAR-4): 17.5 µM (inactive) | GI50 (UACC-62): 7.89 µM (inactive) | GI50 (OVCAR-8): 20.9 µM (inactive) | GI50 (HT-29): 17.7 µM (inactive) | GI50 (IGROV-1): 14.5 µM (inactive) | GI50 (M19-MEL): 12.5 µM (inactive) | GI50 (DLD-1): 24.4 µM (inactive) | GI50 (SNB-78): 23.4 µM (inactive)
